Organism: Rattus norvegicus
Assay: Open TG-GATES - Regimen: Single
Format: toxicity, organism-based, Sprague-Dawley
Parameters: regimen Single, gender Male, age 6 weeks
Details: in vivo, po, 0 mg/kg, route gavage, dose level Control; for APTT / Bas / Eos / Fbg / Hb / Ht / Lym / MCH / MCHC / MCV / Mono / Neu / PT / Plat / RBC / Ret / WBC: tissue Blood; for KIDNEY_L / KIDNEY_R / KIDNEY_TOTAL: tissue Kidney; for LIVER: tissue Liver; for A/G / ALP / ALT / AST / BUN / CRE / Ca / Cl / DBIL / GLC / IP / K / LDH / Na / PL / RALB / TBIL / TC / TG / TP / gamma-GTP: tissue Plasma

CC[C@H]1[C@@H]2C[C@H]3[C@@H]4N(C)c5ccccc5[C@]45C[C@@H]([C@@H]2[C@H]5O)N3[C@@H]1O [AJMALINE] gave a TERMINAL_BW (3 h) of 194.6 g, an APTT (3 h) of 16.6 s and a Bas (3 h) of 0%. For the same compound, the Eos (3 h) was 1%, the Fbg (3 h) was 202.8 mg/dL and the Hb (3 h) was 12.8 g/dL. For the same compound, the Ht (3 h) was 39.1%, the Lym (3 h) was 80.2% and the MCH (3 h) was 21.8 pg. It also gave an MCHC (3 h) of 32.9%, an MCV (3 h) of 66.3 fL and a Mono (3 h) of 6.8%. The Neu (3 h) was 12.2%, the PT (3 h) was 11.6 s and the Plat (3 h) was 109.9 x10_4/uL. For the same compound, the RBC (3 h) was 589.2 x10_4/ul, the Ret (3 h) was 12.5% and the WBC (3 h) was 94.6 x10_2/uL. For the same compound, the KIDNEY_L (3 h) was 0.9 g, the KIDNEY_R (3 h) was 0.9 g and the KIDNEY_TOTAL (3 h) was 1.9 g. For the same compound, the LIVER (3 h) was 9.4 g, the A/G (3 h) was 2.5 and the ALP (3 h) was 879.4 IU/L. It also gave an ALT (3 h) of 34.6 IU/L, an AST (3 h) of 66.8 IU/L and a BUN (3 h) of 10.6 mg/dL. For the same compound, the CRE (3 h) was 0.4 mg/dL, the Ca (3 h) was 11.4 mg/dL and the Cl (3 h) was 100.8 meq/L. For the same compound, the DBIL (3 h) was 0.04 mg/dL, the GLC (3 h) was 191.4 mg/dL and the IP (3 h) was 9.5 mg/dL. The K (3 h) was 4.4 meq/L, the LDH (3 h) was 95.4 IU/L and the Na (3 h) was 137.2 meq/L. It also gave a PL (3 h) of 149 mg/dL, an RALB (3 h) of 3.7 g/dL and a TBIL (3 h) of 0.3 mg/dL. The TC (3 h) was 82.4 mg/dL, the TG (3 h) was 69.4 mg/dL and the TP (3 h) was 5.3 g/dL. For the same compound, the gamma-GTP (3 h) was 2 IU/L, the TERMINAL_BW (6 h) was 192.3 g and the APTT (6 h) was 16.9 s. For the same compound, the Bas (6 h) was 0%, the Eos (6 h) was 1.2% and the Fbg (6 h) was 196.2 mg/dL. For the same compound, the Hb (6 h) was 13 g/dL, the Ht (6 h) was 39.5% and the Lym (6 h) was 73.4%. The MCH (6 h) was 21.5 pg, the MCHC (6 h) was 32.8% and the MCV (6 h) was 65.3 fL. For the same compound, the Mono (6 h) was 10.6%, the Neu (6 h) was 15% and the PT (6 h) was 11.6 s. The Plat (6 h) was 113.8 x10_4/uL, the RBC (6 h) was 605.4 x10_4/ul and the Ret (6 h) was 10.6%. It also gave a WBC (6 h) of 102.3 x10_2/uL, a KIDNEY_L (6 h) of 0.9 g and a KIDNEY_R (6 h) of 0.9 g. It also gave a KIDNEY_TOTAL (6 h) of 1.7 g, an LIVER (6 h) of 8.3 g and an A/G (6 h) of 2.2. The ALP (6 h) was 832.4 IU/L, the ALT (6 h) was 34.6 IU/L and the AST (6 h) was 61.8 IU/L. For the same compound, the BUN (6 h) was 9.6 mg/dL, the CRE (6 h) was 0.5 mg/dL and the Ca (6 h) was 10.7 mg/dL. For the same compound, the Cl (6 h) was 103.4 meq/L, the DBIL (6 h) was 0.042 mg/dL and the GLC (6 h) was 187 mg/dL. The IP (6 h) was 10 mg/dL, the K (6 h) was 4.8 meq/L and the LDH (6 h) was 72.6 IU/L. For the same compound, the Na (6 h) was 138.8 meq/L, the PL (6 h) was 133.2 mg/dL and the RALB (6 h) was 3.5 g/dL. The TBIL (6 h) was 0.4 mg/dL, the TC (6 h) was 83.6 mg/dL and the TG (6 h) was 64.8 mg/dL. It also gave a TP (6 h) of 5.2 g/dL, a gamma-GTP (6 h) of 1.6 IU/L and a TERMINAL_BW (9 h) of 192.7 g. For the same compound, the APTT (9 h) was 17.8 s, the Bas (9 h) was 0% and the Eos (9 h) was 1%. For the same compound, the Fbg (9 h) was 199.4 mg/dL, the Hb (9 h) was 12.7 g/dL and the Ht (9 h) was 38.6%. For the same compound, the Lym (9 h) was 79.6%, the MCH (9 h) was 22.2 pg and the MCHC (9 h) was 32.9%. The MCV (9 h) was 67.5 fL, the Mono (9 h) was 7.8% and the Neu (9 h) was 11.6%. The PT (9 h) was 12.3 s, the Plat (9 h) was 114.2 x10_4/uL and the RBC (9 h) was 573.2 x10_4/ul. It also gave a Ret (9 h) of 9.6%, a WBC (9 h) of 93.3 x10_2/uL and a KIDNEY_L (9 h) of 0.9 g. It also gave a KIDNEY_R (9 h) of 0.9 g, a KIDNEY_TOTAL (9 h) of 1.8 g and an LIVER (9 h) of 8.2 g. The A/G (9 h) was 2.4, the ALP (9 h) was 800.8 IU/L and the ALT (9 h) was 32.6 IU/L. For the same compound, the AST (9 h) was 63 IU/L, the BUN (9 h) was 12.2 mg/dL and the CRE (9 h) was 0.6 mg/dL. For the same compound, the Ca (9 h) was 10.4 mg/dL, the Cl (9 h) was 104.6 meq/L and the DBIL (9 h) was 0.064 mg/dL. The GLC (9 h) was 190.4 mg/dL, the IP (9 h) was 10.4 mg/dL and the K (9 h) was 4.9 meq/L. The LDH (9 h) was 82 IU/L, the Na (9 h) was 138.2 meq/L and the PL (9 h) was 126.4 mg/dL. It also gave an RALB (9 h) of 3.7 g/dL, a TBIL (9 h) of 0.3 mg/dL and a TC (9 h) of 74.6 mg/dL. It also gave a TG (9 h) of 42.8 mg/dL, a TP (9 h) of 5.2 g/dL and a gamma-GTP (9 h) of 0.8 IU/L. It also gave a TERMINAL_BW (24 h) of 206.2 g, an APTT (24 h) of 16.5 s and a Bas (24 h) of 0%. It also gave an Eos (24 h) of 0.8%, a Fbg (24 h) of 211.2 mg/dL and a Hb (24 h) of 12.6 g/dL. It also gave a Ht (24 h) of 38.2%, a Lym (24 h) of 75% and an MCH (24 h) of 21.6 pg. It also gave an MCHC (24 h) of 33.1%, an MCV (24 h) of 65.4 fL and a Mono (24 h) of 8.4%. It also gave a Neu (24 h) of 15.6%, a PT (24 h) of 11.5 s and a Plat (24 h) of 106.9 x10_4/uL. For the same compound, the RBC (24 h) was 584.2 x10_4/ul, the Ret (24 h) was 10.1% and the WBC (24 h) was 107.2 x10_2/uL. The KIDNEY_L (24 h) was 0.9 g, the KIDNEY_R (24 h) was 0.9 g and the KIDNEY_TOTAL (24 h) was 1.8 g. It also gave an LIVER (24 h) of 10.2 g, an A/G (24 h) of 2.1 and an ALP (24 h) of 885.6 IU/L. For the same compound, the ALT (24 h) was 38.6 IU/L, the AST (24 h) was 66.4 IU/L and the BUN (24 h) was 16.8 mg/dL. The CRE (24 h) was 0.6 mg/dL, the Ca (24 h) was 11 mg/dL and the Cl (24 h) was 102.6 meq/L. For the same compound, the DBIL (24 h) was 0.026 mg/dL, the GLC (24 h) was 202.2 mg/dL and the IP (24 h) was 8.4 mg/dL. The K (24 h) was 4.6 meq/L, the LDH (24 h) was 86.8 IU/L and the Na (24 h) was 140.6 meq/L. It also gave a PL (24 h) of 146.8 mg/dL, an RALB (24 h) of 3.6 g/dL and a TBIL (24 h) of 0.3 mg/dL. The TC (24 h) was 81 mg/dL, the TG (24 h) was 103 mg/dL and the TP (24 h) was 5.4 g/dL. For the same compound, the gamma-GTP (24 h) was 1.2 IU/L.

— ChEMBL document CHEMBL3885861, “Open TG-GATES”
